Source: the NIST ThermoML archive (doi:10.1016/j.fluid.2005.06.010)

Experiment: xn = mol fraction of the nth substance listed
Conditions: Fluid (supercritical or subcritical phases), Vibrating tube method

c1ccc2ccccc2c1 [naphthalene] + O=C=O
Conditions | mass density [kg/m3]
318.03 K, 16010 kPa, x1 = 0.0198 | 802.31
318.03 K, 16995 kPa, x1 = 0.0198 | 813.73
318.03 K, 17979 kPa, x1 = 0.0198 | 824.06
318.03 K, 18989 kPa, x1 = 0.0198 | 833.74
318.03 K, 20016 kPa, x1 = 0.0198 | 842.78
318.03 K, 20955 kPa, x1 = 0.0198 | 850.43
318.03 K, 21951 kPa, x1 = 0.0198 | 858.04
318.03 K, 22703 kPa, x1 = 0.0198 | 863.41
318.07 K, 18008 kPa, x1 = 0.0235 | 829.61
318.07 K, 18511 kPa, x1 = 0.0235 | 834.41
318.07 K, 19022 kPa, x1 = 0.0235 | 839.2
318.07 K, 19528 kPa, x1 = 0.0235 | 843.76
318.07 K, 20035 kPa, x1 = 0.0235 | 848.15
318.07 K, 20519 kPa, x1 = 0.0235 | 852.18
318.07 K, 21009 kPa, x1 = 0.0235 | 856.16
318.07 K, 22034 kPa, x1 = 0.0235 | 864
318.07 K, 23008 kPa, x1 = 0.0235 | 870.96
318.07 K, 23971 kPa, x1 = 0.0235 | 877.49
318.07 K, 24665 kPa, x1 = 0.0235 | 882.02
318.08 K, 12165 kPa, x1 = 0.0144 | 719.15
318.08 K, 12357 kPa, x1 = 0.0144 | 724.21
318.08 K, 12493 kPa, x1 = 0.0144 | 727.5
318.08 K, 13016 kPa, x1 = 0.0144 | 739.71
318.08 K, 13476 kPa, x1 = 0.0144 | 749.33
318.08 K, 14019 kPa, x1 = 0.0144 | 759.61
318.08 K, 14983 kPa, x1 = 0.0144 | 775.77
318.08 K, 14983 kPa, x1 = 0.0173 | 784.34
318.08 K, 15997 kPa, x1 = 0.0144 | 790.28
318.08 K, 16066 kPa, x1 = 0.0173 | 799.24
318.08 K, 16997 kPa, x1 = 0.0144 | 803.04
318.08 K, 16997 kPa, x1 = 0.0173 | 810.5
318.08 K, 17981 kPa, x1 = 0.0144 | 814.33
318.08 K, 18010 kPa, x1 = 0.0173 | 821.53
318.08 K, 18981 kPa, x1 = 0.0144 | 824.7
318.08 K, 19014 kPa, x1 = 0.0173 | 831.51
318.08 K, 20037 kPa, x1 = 0.0173 | 840.84
318.08 K, 20042 kPa, x1 = 0.0144 | 834.82
318.08 K, 20902 kPa, x1 = 0.0144 | 842.42
318.08 K, 20967 kPa, x1 = 0.0173 | 848.79
318.08 K, 21935 kPa, x1 = 0.0144 | 850.92
318.08 K, 22018 kPa, x1 = 0.0173 | 857.06
318.08 K, 22960 kPa, x1 = 0.0144 | 858.89
318.08 K, 22995 kPa, x1 = 0.0173 | 864.32
318.08 K, 23932 kPa, x1 = 0.0144 | 865.94
318.08 K, 23962 kPa, x1 = 0.0173 | 871.14
318.08 K, 24764 kPa, x1 = 0.0173 | 876.56
318.08 K, 24829 kPa, x1 = 0.0144 | 872.11
318.11 K, 9524 kPa, x1 = 0.0065 | 513.41
318.11 K, 9601 kPa, x1 = 0.0049 | 505.2
318.11 K, 9622 kPa, x1 = 0.0065 | 527.97
318.11 K, 9697 kPa, x1 = 0.0049 | 521.21
318.11 K, 9722 kPa, x1 = 0.0065 | 543.81
318.11 K, 9775 kPa, x1 = 0.0049 | 532.95
318.11 K, 9801 kPa, x1 = 0.0065 | 554.22
318.11 K, 9898 kPa, x1 = 0.0065 | 566.44
318.11 K, 9974 kPa, x1 = 0.0049 | 559.06
318.11 K, 9975 kPa, x1 = 0.0065 | 575.84
318.11 K, 10075 kPa, x1 = 0.0065 | 586.3
318.11 K, 10181 kPa, x1 = 0.0065 | 596.66
318.11 K, 10293 kPa, x1 = 0.0065 | 606.9
318.11 K, 10405 kPa, x1 = 0.0065 | 616.37
318.11 K, 10523 kPa, x1 = 0.0049 | 610.25
318.11 K, 10629 kPa, x1 = 0.0065 | 632.61
318.11 K, 10763 kPa, x1 = 0.0093 | 652.77
318.11 K, 10830 kPa, x1 = 0.0065 | 645.51
318.11 K, 10978 kPa, x1 = 0.0093 | 663.58
318.11 K, 10980 kPa, x1 = 0.0049 | 639.71
318.11 K, 11049 kPa, x1 = 0.0065 | 657.73
318.11 K, 11516 kPa, x1 = 0.0065 | 679.19
318.11 K, 11989 kPa, x1 = 0.0093 | 702.27
318.11 K, 12007 kPa, x1 = 0.0049 | 684.72
318.11 K, 12072 kPa, x1 = 0.0065 | 699.49
318.11 K, 12537 kPa, x1 = 0.0065 | 713.68
318.11 K, 12998 kPa, x1 = 0.0093 | 729.76
318.11 K, 13017 kPa, x1 = 0.0065 | 726.51
318.11 K, 13024 kPa, x1 = 0.0049 | 715.37
318.11 K, 13986 kPa, x1 = 0.0049 | 737.86
318.11 K, 14066 kPa, x1 = 0.0093 | 752.41
318.11 K, 14069 kPa, x1 = 0.0065 | 749.53
318.11 K, 14967 kPa, x1 = 0.0093 | 768.35
318.11 K, 14970 kPa, x1 = 0.0049 | 756.77
318.11 K, 15010 kPa, x1 = 0.0065 | 766.43
318.11 K, 15879 kPa, x1 = 0.0065 | 779.94
318.11 K, 15977 kPa, x1 = 0.0049 | 773.28
